# Results reported in PubChem BioAssay AID1918943 (Molecular Pharmacology Branch, DTP, NCI, 2023).
# Several values for one entry are separate records, joined by “and”; a condition that tells them apart may be missing. Equal values may be shown once.
# Tested on: 855422-203-R-J1-PDC complex spheroid viability
# Assay: Anticancer human tumor 855422-203-R-J1-PDC patient-derived bladder carcinoma cell line growth inhibition
# Settings: for viability, T/C: stronger effect = lower value
# Summary of the method: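 Drug combinations with the LSD1 inhibitor iadademstat tested on tumor cells co-cultured as spheroids with endothelial cells and mesenchymal stem cells. Concentrations descended in half-log increments from clinical Cmax or 10 microM.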
# [1] = curve of first compound, second compound 0.1 µM
# [2] = curve of first compound, second compound 0.316 µM
# [3] = curve of first compound, second compound 1 µM
# [4] = curve of first compound, second compound 3.16 µM
# [5] = curve of first compound, second compound 10 µM
# [6] = second compound 0.1 µM, first compound 0.0316 µM
# [7] = second compound 0.1 µM, first compound 0.1 µM
# [8] = second compound 0.1 µM, first compound 0.316 µM
# [9] = second compound 0.1 µM, first compound 1 µM
# [10] = second compound 0.1 µM, first compound 3.16 µM
# [11] = second compound 0.1 µM, first compound 10 µM
# [12] = second compound 0.316 µM, first compound 0.0316 µM
# [13] = second compound 0.316 µM, first compound 0.1 µM
# [14] = second compound 0.316 µM, first compound 0.316 µM
# [15] = second compound 0.316 µM, first compound 1 µM
# [16] = second compound 0.316 µM, first compound 3.16 µM
# [17] = second compound 0.316 µM, first compound 10 µM
# [18] = second compound 1 µM, first compound 0.0316 µM
# [19] = second compound 1 µM, first compound 0.1 µM
# [20] = second compound 1 µM, first compound 0.316 µM
# [21] = second compound 1 µM, first compound 1 µM
# [22] = second compound 1 µM, first compound 3.16 µM
# [23] = second compound 1 µM, first compound 10 µM
# [24] = second compound 3.16 µM, first compound 0.0316 µM
# [25] = second compound 3.16 µM, first compound 0.1 µM
# [26] = second compound 3.16 µM, first compound 0.316 µM
# [27] = second compound 3.16 µM, first compound 1 µM
# [28] = second compound 3.16 µM, first compound 3.16 µM
# [29] = second compound 3.16 µM, first compound 10 µM
# [30] = second compound 10 µM, first compound 0.0316 µM
# [31] = second compound 10 µM, first compound 0.1 µM
# [32] = second compound 10 µM, first compound 0.316 µM
# [33] = second compound 10 µM, first compound 1 µM
# [34] = second compound 10 µM, first compound 3.16 µM
# [35] = second compound 10 µM, first compound 10 µM
# 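Also: drug exposure lasted 7 days starting on day 3 after seeding.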
# 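For viability, T/C in this document: luminescence viability as percent of DMSO vehicle wells = 100%.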
smiles,measurement,setting,value
O=C(c1cc(Cc2n[nH]c(=O)c3ccccc23)ccc1F)N1CCN(C(=O)C2CC2)CC1 + NC1CCC(NC2CC2c2ccccc2)CC1,IC50,[1],> 10 µM
same,IC50,[2],> 10 µM
same,IC50,[3],> 10 µM
same,IC50,[4],> 10 µM
same,IC50,[5],> 10 µM
same,"viability, T/C",[6],89.1%
same,"viability, T/C",[7],97.5%
same,"viability, T/C",[8],83.5%
same,"viability, T/C",[9],83.2%
same,"viability, T/C",[10],84.6%
same,"viability, T/C",[11],72.3%
same,"viability, T/C",[12],98.7%
same,"viability, T/C",[13],90.8%
same,"viability, T/C",[14],83.4%
same,"viability, T/C",[15],84.6%
same,"viability, T/C",[16],82.1%
same,"viability, T/C",[17],73.8%
same,"viability, T/C",[18],94.2%
same,"viability, T/C",[19],87.3%
same,"viability, T/C",[20],87.7%
same,"viability, T/C",[21],93%
same,"viability, T/C",[22],88.1%
same,"viability, T/C",[23],79.5%
same,"viability, T/C",[24],89.5%
same,"viability, T/C",[25],89.8%
same,"viability, T/C",[26],92%
same,"viability, T/C",[27],87.7%
same,"viability, T/C",[28],79.8%
same,"viability, T/C",[29],76.1%
same,"viability, T/C",[30],83.3%
same,"viability, T/C",[31],81.9%
same,"viability, T/C",[32],86.4%
same,"viability, T/C",[33],82.6%
same,"viability, T/C",[34],80.8%
same,"viability, T/C",[35],72.7%
CC1(C)CCC(CN2CCN(c3ccc(C(=O)NS(=O)(=O)c4ccc(NCC5CCOCC5)c([N+](=O)[O-])c4)c(Oc4cnc5[nH]ccc5c4)c3)CC2)=C(c2ccc(Cl)cc2)C1 + NC1CC1c1ccc(-c2cccc(O)c2)cc1,IC50,[1],6.25 µM
same,IC50,[2],6.32 µM
same,IC50,[3],5.81 µM
same,IC50,[4],5.77 µM
same,IC50,[5],5.48 µM
same,"viability, T/C",[6],90.2%
same,"viability, T/C",[7],104%
same,"viability, T/C",[8],93.5%
same,"viability, T/C",[9],94.5%
same,"viability, T/C",[10],95.5%
same,"viability, T/C",[11],18.6%
same,"viability, T/C",[12],87%
same,"viability, T/C",[13],101%
same,"viability, T/C",[14],101%
same,"viability, T/C",[15],103%
same,"viability, T/C",[16],97.2%
same,"viability, T/C",[17],18.6%
same,"viability, T/C",[18],85.9%
same,"viability, T/C",[19],92.1%
same,"viability, T/C",[20],90.3%
same,"viability, T/C",[21],91.5%
same,"viability, T/C",[22],88.4%
same,"viability, T/C",[23],15.8%
same,"viability, T/C",[24],85.4%
same,"viability, T/C",[25],87.3%
same,"viability, T/C",[26],89.4%
same,"viability, T/C",[27],91.1%
same,"viability, T/C",[28],94.6%
same,"viability, T/C",[29],13.8%
same,"viability, T/C",[30],79.7%
same,"viability, T/C",[31],82.9%
same,"viability, T/C",[32],82.6%
same,"viability, T/C",[33],82.5%
same,"viability, T/C",[34],84.8%
same,"viability, T/C",[35],14.5%
CC(C)CC(NC(=O)CNC(=O)c1cc(Cl)ccc1Cl)B1OC(=O)CC(CC(=O)O)(C(=O)O)O1 (centres undefined),"viability, T/C",compound 0.000316 µM,105%
same,"viability, T/C",compound 0.001 µM,76.8% and 109%
same,"viability, T/C",compound 0.00316 µM,6.4% and 3.59%
same,"viability, T/C",compound 0.01 µM,1.38% and 0.62%
same,"viability, T/C",compound 0.0316 µM,0.11% and 0.19%
same,"viability, T/C",compound 0.1 µM,0.17% and 0.19%
same,IC50,curve of compound,0.00155 µM and 0.00188 µM
O=C(C=Cn1cnc(-c2cc(C(F)(F)F)cc(C(F)(F)F)c2)n1)NNc1cnccn1 + NC1CCC(NC2CC2c2ccccc2)CC1,IC50,[1],0.0346 µM
same,IC50,[2],0.0543 µM
same,IC50,[3],0.0456 µM
same,IC50,[4],0.0404 µM
same,IC50,[5],0.0451 µM
same,"viability, T/C","second compound 0.1 µM, first compound 0.00316 µM",126%
same,"viability, T/C","second compound 0.1 µM, first compound 0.01 µM",106%
same,"viability, T/C",[6],49.8%
same,"viability, T/C",[7],44.6%
same,"viability, T/C",[8],38.1%
same,"viability, T/C",[9],28.6%
same,"viability, T/C","second compound 0.316 µM, first compound 0.00316 µM",142%
same,"viability, T/C","second compound 0.316 µM, first compound 0.01 µM",98.2%
same,"viability, T/C",[12],51.2%
same,"viability, T/C",[13],49.5%
same,"viability, T/C",[14],39.5%
same,"viability, T/C",[15],28.1%
same,"viability, T/C","second compound 1 µM, first compound 0.00316 µM",128%
same,"viability, T/C","second compound 1 µM, first compound 0.01 µM",116%
same,"viability, T/C",[18],54.3%
same,"viability, T/C",[19],46.6%
same,"viability, T/C",[20],40%
same,"viability, T/C",[21],28.4%
same,"viability, T/C","second compound 3.16 µM, first compound 0.00316 µM",110%
same,"viability, T/C","second compound 3.16 µM, first compound 0.01 µM",106%
same,"viability, T/C",[24],52.8%
same,"viability, T/C",[25],44.3%
same,"viability, T/C",[26],40.9%
same,"viability, T/C",[27],27.9%
same,"viability, T/C","second compound 10 µM, first compound 0.00316 µM",99.1%
same,"viability, T/C","second compound 10 µM, first compound 0.01 µM",101%
same,"viability, T/C",[30],55.5%
same,"viability, T/C",[31],43.1%
same,"viability, T/C",[32],37.5%
same,"viability, T/C",[33],31.9%
Nc1ccccc1NC(=O)c1ccc(CNC(=O)OCc2cccnc2)cc1,"viability, T/C",compound 0.00949 µM,92.6% and 94.4%
same,"viability, T/C",compound 0.03 µM,100% and 97%
same,"viability, T/C",compound 0.0949 µM,106% and 105%
same,"viability, T/C",compound 0.3 µM,90.8% and 101%
same,"viability, T/C",compound 0.949 µM,75.4% and 64%
same,"viability, T/C",compound 3 µM,13.4% and 13.2%
same,IC50,curve of compound,1.51 µM and 1.3 µM
CCN(c1cc(-c2ccc(CN3CCOCC3)cc2)cc(C(=O)NCc2c(C)cc(C)[nH]c2=O)c1C)C1CCOCC1 + NC1CCC(NC2CC2c2ccccc2)CC1,IC50,[1],> 3 µM
same,IC50,[2],> 3 µM
same,IC50,[3],> 3 µM
same,IC50,[4],> 3 µM
same,IC50,[5],> 3 µM
same,"viability, T/C","second compound 0.1 µM, first compound 0.00949 µM",86.3%
same,"viability, T/C","second compound 0.1 µM, first compound 0.03 µM",103%
same,"viability, T/C","second compound 0.1 µM, first compound 0.0949 µM",87%
same,"viability, T/C","second compound 0.1 µM, first compound 0.3 µM",86.7%
same,"viability, T/C","second compound 0.1 µM, first compound 0.949 µM",91.4%
same,"viability, T/C","second compound 0.1 µM, first compound 3 µM",82.9%
same,"viability, T/C","second compound 0.316 µM, first compound 0.00949 µM",85.3%
same,"viability, T/C","second compound 0.316 µM, first compound 0.03 µM",95.9%
same,"viability, T/C","second compound 0.316 µM, first compound 0.0949 µM",96.2%
same,"viability, T/C","second compound 0.316 µM, first compound 0.3 µM",91.4%
same,"viability, T/C","second compound 0.316 µM, first compound 0.949 µM",89.9%
same,"viability, T/C","second compound 0.316 µM, first compound 3 µM",91.1%
same,"viability, T/C","second compound 1 µM, first compound 0.00949 µM",92.3%
same,"viability, T/C","second compound 1 µM, first compound 0.03 µM",92.7%
same,"viability, T/C","second compound 1 µM, first compound 0.0949 µM",93.5%
same,"viability, T/C","second compound 1 µM, first compound 0.3 µM",88.3%
same,"viability, T/C","second compound 1 µM, first compound 0.949 µM",86.3%
same,"viability, T/C","second compound 1 µM, first compound 3 µM",91.8%
same,"viability, T/C","second compound 3.16 µM, first compound 0.00949 µM",91.3%
same,"viability, T/C","second compound 3.16 µM, first compound 0.03 µM",90.5%
same,"viability, T/C","second compound 3.16 µM, first compound 0.0949 µM",83.3%
same,"viability, T/C","second compound 3.16 µM, first compound 0.3 µM",87.6%
same,"viability, T/C","second compound 3.16 µM, first compound 0.949 µM",82%
same,"viability, T/C","second compound 3.16 µM, first compound 3 µM",95.9%
same,"viability, T/C","second compound 10 µM, first compound 0.00949 µM",84.1%
same,"viability, T/C","second compound 10 µM, first compound 0.03 µM",82.6%
same,"viability, T/C","second compound 10 µM, first compound 0.0949 µM",79.4%
same,"viability, T/C","second compound 10 µM, first compound 0.3 µM",79.5%
same,"viability, T/C","second compound 10 µM, first compound 0.949 µM",82.7%
same,"viability, T/C","second compound 10 µM, first compound 3 µM",83.7%
